In US9365558B2 (BRISTOL-MYERS SQUIBB COMPANY, priority 2013, dated 2016):

The molecules below were run against Human MGAT-2 (Homo sapiens (Human), UniProt Q3SYC2) (assay: MGAT LCMS Assay). Settings: recombinant MGAT-2 membranes expressed in Sf9 cells; 100 μM 2-oleoylglycerol, 15 μM oleoyl-Coenzyme A; LC/MS of diolein; read-out: h-MGAT LCMS IC50.
Assay type: biochemical
Protocol: Assay plates were run through a fully automated robotics system and shaken for 5 seconds every minute for a total 10 minutes. The reactions were then quenched with 120 μL of ice cold methanol containing 1 μg/mL 1,2-distearoyl-rac-glycerol as the internal standard. Plates were shaken for 2 minutes and spun down to remove protein precipitation. After the spin, samples were transferred to LC/MS compatible PCR plates. For LC/MS analysis, a ThermoFisher Surveyor pump, utilizing a Waters Symmetry C8, 50×2.1 mm column, was used for the chromatography of enzyme products. The buffer system consists of 0.1% formic acid in water with a mobile phase consisting 0.1% formic acid in methanol. The shallow gradient is 90-100% mobile phase in 0.2 min with a total run time of 2.3 min. The first 0.5 minutes of each injection was diverted to waste to eliminate the presence of Phosphate buffer in the enzymatic reaction. The column was run at 0.6 mL/min and a temperature of 65° C. Mass spectrometry analysis of the samples was performed on a ThermoFisher Quantum Triple quad utilizing APCI (+) as the mode of ionization. […] The ratio of Diolein to internal standard (Peak Area Ratio) is utilized to calculate IC50 values.

Sequence of Human MGAT-2 (Q3SYC2 whole entry): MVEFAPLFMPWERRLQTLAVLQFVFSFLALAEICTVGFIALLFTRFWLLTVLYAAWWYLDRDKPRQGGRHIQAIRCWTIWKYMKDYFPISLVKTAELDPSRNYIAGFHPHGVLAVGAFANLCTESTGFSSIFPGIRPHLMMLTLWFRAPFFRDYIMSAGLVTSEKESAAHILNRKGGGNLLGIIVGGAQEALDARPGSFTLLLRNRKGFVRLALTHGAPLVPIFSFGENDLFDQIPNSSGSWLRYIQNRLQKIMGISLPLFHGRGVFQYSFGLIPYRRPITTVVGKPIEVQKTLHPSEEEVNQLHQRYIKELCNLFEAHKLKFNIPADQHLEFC

Row | SMILES | IC50 [µM]
1 | O=C1N[C@@](c2cnn(CCCCCC(F)(F)F)c2)(C(F)(F)F)CC(c2ccc3c(c2)CCCC3)=C1C(=O)NS(=O)(=O)C1CC1 [Example 58] | 0.013
2 | C[C@@]1(c2ccc(OCCCC(F)(F)F)cc2)CC(c2ccn(CC3CC3)n2)=C(C(=O)NS(=O)(=O)C2CC2)C(=O)N1 [Example 60] | 0.034
3 | Cc1ccc(C2=C(C(=O)NS(N)(=O)=O)C(=O)N[C@@](c3ccc(OCCCC(F)(F)F)cc3)(C(F)(F)F)C2)cc1 [Example 61] | 0.045
4 | CS(=O)(=O)NC(=O)C1=C(c2ccc3c(c2)CCC3)C[C@](c2ccc(OCCCC(F)(F)F)cc2F)(C(F)(F)F)NC1=O [Example 66] | 0.022
5 | O=C1N[C@@](c2ccc(OCCCC(F)(F)F)cc2)(C(F)(F)F)CC(c2ccn(CC3CCC3)n2)=C1C(=O)NS(=O)(=O)C1CC1 [Example 74] | 0.017
6 | CC(C)n1ccc(C2=C(C(=O)NS(=O)(=O)C3CC3)C(=O)N[C@@](c3ccc(CCCCC(F)(F)F)cc3)(C(F)(F)F)C2)n1 [Example 75] | 0.023
7 | O=C1N[C@@](c2ccc(CCCCC(F)(F)F)cc2)(C(F)(F)F)CC(c2ccn(C3CC3)n2)=C1C(=O)NS(=O)(=O)C1CC1 [Example 76] | 0.072
8 | O=C1N[C@@](c2ccc(OCCCC(F)(F)F)cc2)(C(F)(F)F)CC(c2ccn(C3CCC3)n2)=C1C(=O)NS(=O)(=O)C1CC1 [Example 77] | 0.029
9 | O=C1N[C@@](c2ccc(OCCCCCC(F)(F)F)cc2)(C(F)(F)F)CC(c2ccn(C3CC3)n2)=C1C(=O)NS(=O)(=O)C1CC1 [Example 78] | 0.025
10 | CC(C)Cn1ccc(C2=C(C(=O)NS(=O)(=O)C3CC3)C(=O)N[C@@](c3ccc(OCCCCCC(F)(F)F)cc3)(C(F)(F)F)C2)n1 [Example 81] | 0.043
11 | CC(C)(C)c1ccc(C2=C(C(=O)NS(C)(=O)=O)C(=O)N[C@](C)(c3ccc(OCCCC(F)(F)F)cc3)C2)cc1 [Example 85] | 0.027
12 | CS(=O)(=O)NC(=O)C1=C(c2ccn(C3CC3)n2)C[C@](c2ccc(OCCCCCC(F)(F)F)cc2F)(C(F)(F)F)NC1=O [Example 86] | 0.166
13 | O=C1N[C@@](c2ccc(OCCCC(F)(F)F)cc2)(C(F)(F)F)CC(c2ccn(C3CC3)n2)=C1C(=O)NS(=O)(=O)C1CC1 [Example 87] | 0.098
14 | O=C1N[C@@](c2ccc(OCCCC(F)(F)F)cc2)(C(F)(F)F)CC(c2ccn(CC3CC3)n2)=C1C(=O)NS(=O)(=O)C1CC1 [Example 88] | 0.067
15 | CS(=O)(=O)NC(=O)C1=C(c2ccn(CC3CC3)n2)C[C@](c2ccc(OCCCC(F)(F)F)cc2)(C(F)(F)F)NC1=O [Example 91] | 0.023
16 | Cc1ccc(C2=C(C(=O)NS(=O)(=O)C3CC3)C(=O)N[C@@](c3cnn(CCCCCC(F)(F)F)c3)(C(F)(F)F)C2)cc1 [Example 93] | 0.179
17 | O=C1N[C@@](c2cnn(CC/C=C/CCC(F)(F)F)c2)(C(F)(F)F)CC(c2ccc3c(c2)CCCC3)=C1C(=O)NS(=O)(=O)C1CC1 [Example 95] | 0.088
18 | CCOc1ccc(C2=C(C(=O)NS(C)(=O)=O)C(=O)N[C@@](c3ccc(OCCCC(F)(F)F)cc3F)(C(F)(F)F)C2)cc1 [Example 97] | 0.042
19 | Cc1ccc(C2=C(C(=O)NS(=O)(=O)C3CC3)C(=O)N[C@@](C3CCCCC3)(C(F)(F)F)C2)cc1 [Example 98] | 0.022

Now those with a lower IC50, led by results:

Row | IC50 [µM] | SMILES
20 | 0.012 | CS(=O)(=O)NC(=O)C1=C(c2ccc(C(F)F)cc2)C[C@](c2ccc(OCCCC(F)(F)F)cc2F)(C(F)(F)F)NC1=O [Example 71]
21 | 0.009 | Cc1ccc(C2=C(C(=O)NS(=O)(=O)C3CC3)C(=O)N[C@@](c3ccc(OCCCC(F)(F)F)cc3Cl)(C(F)(F)F)C2)cc1 [Example 69]
22 | 0.008 | O=C1N[C@@](c2ccc(OCCCCC(F)(F)F)cc2)(C(F)(F)F)CC(c2ccc(C3CC3)s2)=C1C(=O)NS(=O)(=O)C1CC1 [Example 62]
23 | 0.008 | CS(=O)(=O)NC(=O)C1=C(c2ccn(CC3CCC3)n2)C[C@](c2ccc(OCCCC(F)(F)F)cc2)(C(F)(F)F)NC1=O [Example 90]
24 | 0.007 | CCOc1ccc(C2=C(C(=O)NS(=O)(=O)C3CC3)C(=O)N[C@@](c3ccc(OCCCC(F)(F)F)cc3F)(C(F)(F)F)C2)cc1 [Example 96]
25 | 0.006 | CS(=O)(=O)NC(=O)C1=C(c2ccc(C3CC3)s2)C[C@](c2ccc(OCCCC(F)(F)F)cc2)(C(F)(F)F)NC1=O [Example 64]
26 | 0.006 | CS(=O)(=O)NC(=O)C1=C(c2ccn(C3CC3)n2)C[C@](c2ccc(OCCCCCC(F)(F)F)cc2)(C(F)(F)F)NC1=O [Example 83]
27 | 0.006 | O=C1N[C@@](c2ccc(OCCCCCC(F)(F)F)cc2F)(C(F)(F)F)CC(c2ccn(C3CC3)n2)=C1C(=O)NS(=O)(=O)C1CC1 [Example 89]
28 | 0.005 | O=C1N[C@@](c2ccc(OCCCC(F)(F)F)cc2)(C(F)(F)F)CC(c2ccc(C3CC3)s2)=C1C(=O)NS(=O)(=O)C1CC1 [Example 63]
29 | 0.004 | O=C1N[C@@](c2cnn(CCCCCC(F)(F)F)c2)(C(F)(F)F)CC(c2ccc(C3CC3)s2)=C1C(=O)NS(=O)(=O)C1CC1 [Example 59]
30 | 0.004 | CS(=O)(=O)NC(=O)C1=C(c2ccc(C3CC3)s2)C[C@](c2ccc(OCCCC(F)(F)F)cc2F)(C(F)(F)F)NC1=O [Example 65]
31 | 0.004 | CC(C)n1ccc(C2=C(C(=O)NS(=O)(=O)C3CC3)C(=O)N[C@@](c3ccc(OCCCCCC(F)(F)F)cc3)(C(F)(F)F)C2)c1 [Example 72]
32 | 0.004 | O=C1N[C@@](c2cnn(CCCCCCC(F)(F)F)c2)(C(F)(F)F)CC(c2ccc3c(c2)CCCC3)=C1C(=O)NS(=O)(=O)C1CC1 [Example 94]
33 | 0.004 | [2H]C1([2H])C(c2ccc(OC)cc2)=C(C(=O)NS(=O)(=O)C2CC2)C(=O)N[C@@]1(c1ccc(OCCCCCC(F)(F)F)cc1F)C(F)(F)F [Example 99]
34 | 0.003 | O=C1N[C@@](c2ccc(OCCCCCC(F)(F)F)cc2)(C(F)(F)F)CC(c2ccn(CC3CC3)n2)=C1C(=O)NS(=O)(=O)C1CC1 [Example 79]
35 | 0.002 | O=C1N[C@@](c2ccc(OCCCC(F)(F)F)cc2F)(C(F)(F)F)CC(c2ncc(C3CC3)s2)=C1C(=O)NS(=O)(=O)C1CC1 [Example 70]
36 | 0.002 | O=C1N[C@@](c2ccc(CCCCC(F)(F)F)cc2)(C(F)(F)F)CC(c2ccn(CC3CC3)n2)=C1C(=O)NS(=O)(=O)C1CC1 [Example 73]
37 | 0.002 | CCc1ccc(C2=C(C(=O)NS(=O)(=O)C3CC3)C(=O)N[C@](C)(c3ccc(OCCCC(F)(F)F)cc3)C2)cc1 [Example 82]
38 | 0.001 | CS(=O)(=O)NC(=O)C1=C(c2ccc(C(F)F)cc2)C[C@](c2ccc(OCCCCCC(F)(F)F)cc2F)(C(F)(F)F)NC1=O [Example 67]
39 | 0.001 | CS(=O)(=O)NC(=O)C1=C(c2ccc(C3CC3)cc2)C[C@](c2ccc(OCCCCCC(F)(F)F)cc2F)(C(F)(F)F)NC1=O [Example 68]
